Assay results taken from US12077503B2, “Substituted cyclic amides and their use as herbicides” (FMC CORPORATION, priority 2015, dated 2024).

Experiments:
Type in all cases: in vivo
[1] = system: velvetleaf (Abutilon theophrasti); assay: Test G Post-Emergence Protocol; details: Abutilon theophrasti, post-emergence, 312 h; for pest or weed control at 15.625 g/ha: 15.625 g ai/ha, evaluated after 13 days (100=total damage to plant; 0=no damage to plant), read-out: Velvetleaf damage rating; for pest or weed control at 62.5 g/ha: 62.5 g ai/ha, read-out: Velvetleaf damage rating (100=total damage to plant; 0=no damage to plant); for pest or weed control at 62.5 g/ha / pest or weed control at 250 g/ha: evaluated after 13 days; for pest or weed control at 250 g/ha: 250 g ai/ha, read-out: damage to plant, Velvetleaf (100=total damage to plant; 0=no damage to plant)
Summary of the method: (§1)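 Values are percent visual injury at 13 days after treatment (0 none, 100 total). Treatment was a post-emergence spray at 15.625, 62.5 or 250 g/ha on 8-day-old pot plants kept at 24/16 °C.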

[2] = system: giant foxtail (Setaria faberi); assay: Test G Post-Emergence Protocol; details: Setaria faberi, post-emergence, 312 h; for pest or weed control at 15.625 g/ha: 15.625 g ai/ha, evaluated after 13 days (100=total damage to plant; 0=no damage to plant), read-out: Foxtail, Giant damage rating; for pest or weed control at 62.5 g/ha: 62.5 g ai/ha, read-out: Foxtail, Giant damage rating (100=total damage to plant; 0=no damage to plant); for pest or weed control at 62.5 g/ha / pest or weed control at 250 g/ha: evaluated after 13 days; for pest or weed control at 250 g/ha: 250 g ai/ha, read-out: damage to plant, Foxtail, Giant (100=total damage to plant; 0=no damage to plant)
Summary of the method: as §1

[3] = system: barnyardgrass (Echinochloa crus-galli); assay: Test G Post-Emergence Protocol; details: Echinochloa crus-galli, post-emergence, 312 h; for pest or weed control at 15.625 g/ha: 15.625 g ai/ha, evaluated after 13 days (100=total damage to plant; 0=no damage to plant), read-out: Barnyardgrass damage rating; for pest or weed control at 62.5 g/ha: 62.5 g ai/ha, read-out: Barnyardgrass damage rating (100=total damage to plant; 0=no damage to plant); for pest or weed control at 62.5 g/ha / pest or weed control at 250 g/ha: evaluated after 13 days; for pest or weed control at 250 g/ha: 250 g ai/ha, read-out: damage to plant, Barnyardgrass (100=total damage to plant; 0=no damage to plant)
Summary of the method: as §1

corn (Zea mays) [4] = assay: Test G Post-Emergence Protocol; details: Zea mays, post-emergence, 312 h; for plant injury at 15.625 g/ha: 15.625 g ai/ha, evaluated after 13 days (100=total damage to plant; 0=no damage to plant), read-out: Corn damage rating; for plant injury at 62.5 g/ha: 62.5 g ai/ha, read-out: Corn damage rating (100=total damage to plant; 0=no damage to plant); for plant injury at 62.5 g/ha / plant injury at 250 g/ha: evaluated after 13 days; for plant injury at 250 g/ha: 250 g ai/ha, read-out: damage to plant, Corn (100=total damage to plant; 0=no damage to plant)
Summary of the method: as §1

[5] = system: ivy-leaved morning glory (Ipomoea hederacea); assay: Test G Post-Emergence Protocol; details: Ipomoea, post-emergence, 312 h; for pest or weed control at 15.625 g/ha: 15.625 g ai/ha, evaluated after 13 days (100=total damage to plant; 0=no damage to plant), read-out: Morningglory, Ivy-leaved damage rating; for pest or weed control at 62.5 g/ha: 62.5 g ai/ha, read-out: Morningglory, Ivy-leaved damage rating (100=total damage to plant; 0=no damage to plant); for pest or weed control at 62.5 g/ha / pest or weed control at 250 g/ha: evaluated after 13 days; for pest or weed control at 250 g/ha: 250 g ai/ha, read-out: damage to plant, Morningglory, Ivy-leaved (100=total damage to plant; 0=no damage to plant)
Summary of the method: as §1

[6] = system: redroot pigweed (Amaranthus retroflexus); assay: Test G Post-Emergence Protocol; details: Amaranthus retroflexus, post-emergence, 312 h; for pest or weed control at 15.625 g/ha: 15.625 g ai/ha, evaluated after 13 days (100=total damage to plant; 0=no damage to plant), read-out: Pigweed, Redroot damage rating; for pest or weed control at 62.5 g/ha: 62.5 g ai/ha, read-out: Pigweed, Redroot damage rating (100=total damage to plant; 0=no damage to plant); for pest or weed control at 62.5 g/ha / pest or weed control at 250 g/ha: evaluated after 13 days; for pest or weed control at 250 g/ha: 250 g ai/ha, read-out: damage to plant, Pigweed, Redroot (100=total damage to plant; 0=no damage to plant)
Summary of the method: as §1

[7] = system: velvetleaf (Abutilon theophrasti); assay: Test G Pre-Emergence Protocol; details: Abutilon theophrasti, pre-emergence, 312 h, evaluated after 13 days; for pest or weed control at 15.625 g/ha: 15.625 g ai/ha; for pest or weed control at 15.625 g/ha / pest or weed control at 250 g/ha: read-out: Velvetleaf damage rating (100=total damage to plant; 0=no damage to plant); for pest or weed control at 62.5 g/ha: 62.5 g ai/ha, 100=total damage to plant, 0=no damage to plant, read-out: plant damage rating, Velvetleaf; for pest or weed control at 250 g/ha: 250 g ai/ha
Summary of the method: (§2)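 Visual injury (0–100) at day 13 after a single pre-emergence spray. Rates: 15.625, 62.5, 250 g/ha in acetone–water 50:50 with 0.5% Tween 20. Growth conditions: 24/16° C, 14 h light, 65% humidity.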

[8] = system: giant foxtail (Setaria faberi); assay: Test G Pre-Emergence Protocol; details: Setaria faberi, pre-emergence, 312 h, evaluated after 13 days; for pest or weed control at 15.625 g/ha: 15.625 g ai/ha; for pest or weed control at 15.625 g/ha / pest or weed control at 250 g/ha: read-out: Foxtail, Giant damage rating (100=total damage to plant; 0=no damage to plant); for pest or weed control at 62.5 g/ha: 62.5 g ai/ha, 100=total damage to plant, 0=no damage to plant, read-out: plant damage rating, Foxtail, Giant; for pest or weed control at 250 g/ha: 250 g ai/ha
Summary of the method: as §2

[9] = system: barnyardgrass (Echinochloa crus-galli); assay: Test G Pre-Emergence Protocol; details: Echinochloa crus-galli, pre-emergence, 312 h, evaluated after 13 days; for pest or weed control at 15.625 g/ha: 15.625 g ai/ha, read-out: Barnyard grass damage rating (100=total damage to plant; 0=no damage to plant); for pest or weed control at 62.5 g/ha: 62.5 g ai/ha, 100=total damage to plant, 0=no damage to plant, read-out: plant damage rating, Barnyardgrass; for pest or weed control at 250 g/ha: 250 g ai/ha, read-out: Barnyardgrass damage rating (100=total damage to plant; 0=no damage to plant)
Summary of the method: as §2

corn (Zea mays) [10] = assay: Test G Pre-Emergence Protocol; details: Zea mays, pre-emergence, 312 h, evaluated after 13 days; for plant injury at 15.625 g/ha: 15.625 g ai/ha; for plant injury at 15.625 g/ha / plant injury at 250 g/ha: read-out: Corn damage rating (100=total damage to plant; 0=no damage to plant); for plant injury at 62.5 g/ha: 62.5 g ai/ha, 100=total damage to plant, 0=no damage to plant, read-out: plant damage rating, Corn; for plant injury at 250 g/ha: 250 g ai/ha
Summary of the method: as §2

[11] = system: ivy-leaved morning glory (Ipomoea hederacea); assay: Test G Pre-Emergence Protocol; details: Ipomoea, pre-emergence, 312 h, evaluated after 13 days; for pest or weed control at 15.625 g/ha: 15.625 g ai/ha, read-out: Morning-glory, Ivy-leaved damage rating (100=total damage to plant; 0=no damage to plant); for pest or weed control at 62.5 g/ha: 62.5 g ai/ha, 100=total damage to plant, 0=no damage to plant, read-out: plant damage rating, Morningglory, Ivy-leaved; for pest or weed control at 250 g/ha: 250 g ai/ha, read-out: Morningglory, Ivy-leaved damage rating (100=total damage to plant; 0=no damage to plant)
Summary of the method: as §2

[12] = system: redroot pigweed (Amaranthus retroflexus); assay: Test G Pre-Emergence Protocol; details: Amaranthus retroflexus, pre-emergence, 312 h, evaluated after 13 days; for pest or weed control at 15.625 g/ha: 15.625 g ai/ha; for pest or weed control at 15.625 g/ha / pest or weed control at 250 g/ha: read-out: Pigweed, Redroot damage rating (100=total damage to plant; 0=no damage to plant); for pest or weed control at 62.5 g/ha: 62.5 g ai/ha, 100=total damage to plant, 0=no damage to plant, read-out: plant damage rating, Pigweed, Redroot; for pest or weed control at 250 g/ha: 250 g ai/ha
Summary of the method: as §2

| SMILES | pest or weed control at 15.625 g/ha [1] | pest or weed control at 62.5 g/ha [1] | pest or weed control at 250 g/ha [1] | pest or weed control at 15.625 g/ha [2] | pest or weed control at 62.5 g/ha [2] | pest or weed control at 250 g/ha [2] | pest or weed control at 15.625 g/ha [3] | pest or weed control at 62.5 g/ha [3] | pest or weed control at 250 g/ha [3] | plant injury at 15.625 g/ha (corn (Zea mays) [4]) | plant injury at 62.5 g/ha (corn (Zea mays) [4]) | plant injury at 250 g/ha (corn (Zea mays) [4]) | pest or weed control at 15.625 g/ha [5] | pest or weed control at 62.5 g/ha [5] | pest or weed control at 250 g/ha [5] | pest or weed control at 15.625 g/ha [6] | pest or weed control at 62.5 g/ha [6] | pest or weed control at 250 g/ha [6] | pest or weed control at 15.625 g/ha [7] | pest or weed control at 62.5 g/ha [7] | other results |
| --- | --- | --- | --- | --- | --- | --- | --- | --- | --- | --- | --- | --- | --- | --- | --- | --- | --- | --- | --- | --- | --- |
| CN1C[C@@H](c2ccc(C(F)(F)F)cc2)[C@H](C(=O)Nc2c[nH]nc2Cl)C1=O (racemic) [Compound 1633] | 0% | 0% | 0% | 0% | 0% | 0% | 0% | 0% | 0% | 0% | 0% | 0% | 0% | 0% | 0% | 0% | 0% | 0% | 0% | 0% | pest or weed control at 250 g/ha [7]: 0%; pest or weed control at 15.625 g/ha [8]: 0%; pest or weed control at 62.5 g/ha [8]: 0%; pest or weed control at 250 g/ha [8]: 0%; pest or weed control at 15.625 g/ha [9]: 0%; pest or weed control at 62.5 g/ha [9]: 0%; pest or weed control at 250 g/ha [9]: 0%; plant injury at 15.625 g/ha (corn (Zea mays) [10]): 0%; plant injury at 62.5 g/ha (corn (Zea mays) [10]): 0%; plant injury at 250 g/ha (corn (Zea mays) [10]): 0%; pest or weed control at 15.625 g/ha [11]: 0%; pest or weed control at 62.5 g/ha [11]: 0%; pest or weed control at 250 g/ha [11]: 0%; pest or weed control at 15.625 g/ha [12]: 0%; pest or weed control at 62.5 g/ha [12]: 0%; pest or weed control at 250 g/ha [12]: 0% |
| CN1C[C@H](c2ccc(C(F)(F)F)cc2)[C@@H](C(=O)Nc2ccc(F)cn2)C1=O (racemic) [Compound 1450] | 0% | 0% | 0% | 0% | 30% | 60% | 0% | 10% | 20% | 0% | 10% | 10% | 0% | 10% | 20% | 0% | 0% | 30% | 0% | 0% | pest or weed control at 250 g/ha [7]: 0%; pest or weed control at 15.625 g/ha [8]: 40%; pest or weed control at 62.5 g/ha [8]: 70%; pest or weed control at 250 g/ha [8]: 90%; pest or weed control at 15.625 g/ha [9]: 10%; pest or weed control at 62.5 g/ha [9]: 30%; pest or weed control at 250 g/ha [9]: 70%; plant injury at 15.625 g/ha (corn (Zea mays) [10]): 0%; plant injury at 62.5 g/ha (corn (Zea mays) [10]): 0%; plant injury at 250 g/ha (corn (Zea mays) [10]): 0%; pest or weed control at 15.625 g/ha [11]: 0%; pest or weed control at 62.5 g/ha [11]: 0%; pest or weed control at 250 g/ha [11]: 0%; pest or weed control at 15.625 g/ha [12]: 0%; pest or weed control at 62.5 g/ha [12]: 0%; pest or weed control at 250 g/ha [12]: 80% |
| Cc1cncc(NC(=O)[C@@H]2C(=O)N(C)C[C@H]2c2ccc(C(F)(F)F)cc2)n1 (racemic) [Compound 1647] | 0% | 0% | 40% | 0% | 30% | 70% | 0% | 0% | 50% | 0% | 0% | 10% | 0% | 0% | 20% | 0% | 0% | 30% | 0% | 0% | pest or weed control at 250 g/ha [7]: 10%; pest or weed control at 15.625 g/ha [8]: 0%; pest or weed control at 62.5 g/ha [8]: 0%; pest or weed control at 250 g/ha [8]: 70%; pest or weed control at 15.625 g/ha [9]: 0%; pest or weed control at 62.5 g/ha [9]: 0%; pest or weed control at 250 g/ha [9]: 0%; plant injury at 15.625 g/ha (corn (Zea mays) [10]): 0%; plant injury at 62.5 g/ha (corn (Zea mays) [10]): 0%; plant injury at 250 g/ha (corn (Zea mays) [10]): 0%; pest or weed control at 15.625 g/ha [11]: 0%; pest or weed control at 62.5 g/ha [11]: 0%; pest or weed control at 250 g/ha [11]: 0%; pest or weed control at 15.625 g/ha [12]: 0%; pest or weed control at 62.5 g/ha [12]: 0%; pest or weed control at 250 g/ha [12]: 20% |
